Numbers after ± are expanded uncertainties.
Conditions: 283.15 K, Liquid, Vibrating tube method

CCCCCCCCCC [decane]
Conditions | mass density [kg/m3]
7092 kPa | 742.4 ± 2
7106 kPa | 742.5 ± 2
7121 kPa | 742.6 ± 2
7134 kPa | 742.5 ± 2
7192 kPa | 742.7 ± 2
7205 kPa | 742.5 ± 2
7258 kPa | 742.6 ± 2
7275 kPa | 742.6 ± 2
7296 kPa | 742.6 ± 2
7315 kPa | 742.8 ± 2
7327 kPa | 742.7 ± 2
7342 kPa | 742.7 ± 2
7357 kPa | 742.7 ± 2
7374 kPa | 742.7 ± 2
7387 kPa | 742.8 ± 2
7404 kPa | 742.6 ± 2
7420 kPa | 742.9 ± 2
7435 kPa | 742.8 ± 2
7452 kPa | 742.7 ± 2
7466 kPa | 742.7 ± 2
7484 kPa | 742.8 ± 2
7505 kPa | 742.8 ± 2
7518 kPa | 742.8 ± 2
7534 kPa | 742.8 ± 2
7548 kPa | 742.7 ± 2
7567 kPa | 742.9 ± 2
7581 kPa | 742.8 ± 2
7595 kPa | 742.8 ± 2
7611 kPa | 742.9 ± 2
7628 kPa | 742.9 ± 2
7643 kPa | 742.9 ± 2
7658 kPa | 742.9 ± 2
7697 kPa | 743.1 ± 2
7710 kPa | 743 ± 2
7722 kPa | 743 ± 2
7735 kPa | 743 ± 2
7783 kPa | 743 ± 2
7795 kPa | 743 ± 2
7814 kPa | 743.1 ± 2
7830 kPa | 742.9 ± 2
7845 kPa | 743.1 ± 2
7855 kPa | 743 ± 2
7867 kPa | 743.1 ± 2
7879 kPa | 743.1 ± 2
7891 kPa | 743.1 ± 2
7903 kPa | 743.1 ± 2
7915 kPa | 743 ± 2
7926 kPa | 743.1 ± 2
7942 kPa | 743.2 ± 2
7957 kPa | 743.2 ± 2
7975 kPa | 743.1 ± 2
7991 kPa | 743 ± 2
8004 kPa | 743.1 ± 2
8018 kPa | 743.1 ± 2
8033 kPa | 743.2 ± 2
8045 kPa | 743.2 ± 2
8060 kPa | 743.2 ± 2
8078 kPa | 743.1 ± 2
8091 kPa | 743.2 ± 2
8112 kPa | 743.4 ± 2
8127 kPa | 743.2 ± 2
8143 kPa | 743.3 ± 2
8159 kPa | 743.2 ± 2
8171 kPa | 743.4 ± 2
8318 kPa | 743.4 ± 2
8332 kPa | 743.4 ± 2
8347 kPa | 743.4 ± 2
8361 kPa | 743.3 ± 2
8376 kPa | 743.4 ± 2
8392 kPa | 743.5 ± 2
8412 kPa | 743.4 ± 2
8430 kPa | 743.4 ± 2
8446 kPa | 743.4 ± 2
8462 kPa | 743.4 ± 2
8478 kPa | 743.5 ± 2
8497 kPa | 743.6 ± 2
8513 kPa | 743.5 ± 2
8529 kPa | 743.6 ± 2
8546 kPa | 743.5 ± 2
8563 kPa | 743.6 ± 2
8580 kPa | 743.5 ± 2
8596 kPa | 743.5 ± 2
8612 kPa | 743.6 ± 2
8631 kPa | 743.7 ± 2
8648 kPa | 743.7 ± 2
8660 kPa | 743.6 ± 2
8677 kPa | 743.6 ± 2
8695 kPa | 743.6 ± 2
8706 kPa | 743.7 ± 2
8720 kPa | 743.7 ± 2
8735 kPa | 743.8 ± 2
8747 kPa | 743.7 ± 2
8762 kPa | 743.7 ± 2
8774 kPa | 743.8 ± 2
8790 kPa | 743.7 ± 2
8804 kPa | 743.7 ± 2
8818 kPa | 743.6 ± 2
8832 kPa | 743.9 ± 2
8862 kPa | 743.6 ± 2
8890 kPa | 743.7 ± 2
9095 kPa | 743.9 ± 2
9109 kPa | 743.9 ± 2
9124 kPa | 744 ± 2
9134 kPa | 743.9 ± 2
9147 kPa | 743.8 ± 2
9162 kPa | 744 ± 2
9174 kPa | 744 ± 2
9189 kPa | 743.9 ± 2
9203 kPa | 744.1 ± 2
9220 kPa | 744 ± 2
9233 kPa | 744.1 ± 2
9250 kPa | 744.1 ± 2
9261 kPa | 744 ± 2
9274 kPa | 744.1 ± 2
9287 kPa | 744 ± 2
9304 kPa | 744 ± 2
9315 kPa | 744 ± 2
9326 kPa | 744.1 ± 2
9337 kPa | 744.2 ± 2
9354 kPa | 744.1 ± 2
9373 kPa | 744.2 ± 2
9384 kPa | 744.1 ± 2
9396 kPa | 744.1 ± 2
9406 kPa | 744.2 ± 2
9419 kPa | 744.2 ± 2
9429 kPa | 744.2 ± 2
9442 kPa | 744 ± 2
9452 kPa | 744.2 ± 2
9464 kPa | 744.2 ± 2
9476 kPa | 744.2 ± 2
9488 kPa | 744.1 ± 2
9499 kPa | 744.1 ± 2
9517 kPa | 744.3 ± 2
9532 kPa | 744.2 ± 2
9543 kPa | 744.3 ± 2
9556 kPa | 744.2 ± 2

Reference: the NIST ThermoML archive (doi:10.1021/je800110r)
